Test: Bulk and tapped density of granules / API
Format: physicochemical
Details: API alone, prior to granulation and/or formulation
From the text: It is within the ability of one of skill in the art to determine the bulk density of a compound or composition using methods generally accepted in the art. However, suitable methods include, for example, the European Pharmacopeia edition 6, Test 2.9.15 “apparent volume,” pages 285-286, EDQM, 2007, and USP 31, vol. 1, test <616> page 231-232, The United States Pharmacopeia Convention, 2008. Another example of a suitable method is described below:
Apparatus: • settling apparatus capable of producing in 1 minute 250±15 taps from a height of 3±0.2 mm. The support for the graduated cylinder with its holder, has a mass of 450±5 g • a 250 ml graduated cylinder (2 ml intervals) with a mass of 220±40 g
Method: Into a dry cylinder, introduce without compacting, 100.0 g (m g) of the test substance. […] Read the unsettled apparent volume (V0) to the nearest milliliter. Carry out 10, 500 and 1250 taps and read the corresponding volumes V10, V500, V1250, to the nearest milliliter. […]
Alternatively, if it is not possible to select 100.0 g, select a test sample of any mass but with a volume between 50 ml and 250 ml, measure its apparent volume, V0 as described above, and weigh the sample and specify the mass in the expression of results. Bulk/apparent density may then be determined in g/ml using the following formula: […]
Tapped apparent density may then be determined in g/ml using the following formula: […]

bulk density | SMILES
less than 0.1 g/ml | Cc1c(Cl)c(C)[n+]([O-])c(Cl)c1-c1noc(-c2cc(O)c(O)c([N+](=O)[O-])c2)n1 [2,5-dichloro-3-(5-(3,4-dihydroxy-5-nitrophenyl)-1,2,4-oxadiazol-3-yl)-4,6-dimethylpyridine 1-oxide]
around 0.2 g/ml | Cc1nc(Cl)c(-c2noc(-c3cc(O)c(O)c([N+](=O)[O-])c3)n2)c(C)c1Cl [5-[3-(2,5-dichloro-4,6-dimethylpyridin-3-yl)-[1,2,4]oxadiazol-5-yl]-3-nitrobenzene-1,2-diol]

Reference: patent publication US20210315824A1, “PHARMACEUTICAL FORMULATIONS COMPRISING NITROCATECHOL DERIVATIVES AND METHODS OF MAKING THE SAME” (BIAL - PORTELA & CA, S.A., priority 2009, published 2021)
